# Results taken from patent publication US20260176628A1, “TARGETED EPIGENETIC EDITING AS NOVEL THERAPY FOR MALIGNANT GLIOMA” (The Regents of the University of California, priority 2022, published 2026).
# Assays:
# LN18 human glioma cells [1] = assay: MTT survival assay, TMZ sensitivity; format: cell-based; conditions: TMZ 25 μM or 100 μM, 5 days, vs DMSO
# Description: FIG. 4 Effects of dCas9-DNMT3A-CD/MGMT-specific sgRNA targeted methylation on the sensitivity of glioma cells to temozolomide. […] Negative control: LN18 NSC cells. The “n” indicates the number of separate experiments performed for each cell type. Results were normalized to the average negative control treatment condition (drug vehicle DMSO). TMZ concentrations ranged from 25 µM to 100 µM. Horizontal bars for all figures represent post hoc Tukey's multiple comparisons test results for groups of interest following two-way ANOVA (“ns” indicates “p>0.05”; * indicates p<0.05; ** indicates p<0.01; *** indicates p<0.001; **** indicates p<0.0001). (a) TMZ sensitivity measured via MTT survival assays in LN18 cells co-expressing dCas9-DNMT3A-CD (d3A) and MGMT-targeting sgRNAs (sg1, 2, 3, 4) compared to NSC lines. […] MTT cell survival was calculated by subtracting […] for TMZ-treated cells (25 µM and 100 µM, 5 days) versus DMSO treatment control condition, followed by normalization to the average control condition.
# Cell Survival Assays. […] Formazan product was extracted by cell lysis with DMSO (300 μL) and measured (560 nm absorbance with background subtraction of 660 nm). […]
# LN18 human glioma cells [2] = assay: Clonogenic assay, TMZ sensitivity; format: cell-based; conditions: TMZ 12 days total treatment, vs DMSO
# MGMT CpG island = assay: Bisulfite sequencing (BiSEQ) of TA clones; format: cell-based, human; conditions: for location of methylated CpG sites: LN18 dCas9-DNMT3A-CD/sgRNA clones, Region 1 (sgRNA4) or Region 2 (sgRNA1, 2, 3)
# Description: FIG. 2 Bisulfite sequencing of representative clones with induced methylation patterns of CpG sites at CRISPR-targeted regions within the MGMT CpG island. (a) Map of MGMT CpG island, 762 bp in length, encompassing promoter, exon 1, enhancer, and intron 1 regions. Comprehensive map of the MGMT gene with superimposed locations of Illumina probes (yellow boxes) as well as exon (salmon), intron (purple), and promoter/upstream (gray) regions. Locations of complementary sequences to the four sgRNAs are as shown. Open star, half-closed star and closed star regions indicate locations of differentially methylated Illumina probes. F1/R1 and F2/R2 indicate nested PCR primer pairs for Region 1 and Region 2, respectively. Inset: MGMT CpG island (individual CpG sites in light green) and relative locations of Region 1 and Region 2. CpG sites 22, 57, 72, and 96 indicate the specific sites flanking each region, numbered in order from 5′ to 3′ within the CpG island. Differentially methylated regions are shown (DMR1 and DMR2), located within assayed Region 1 and 2, respectively. MSP region is also shown within DMR2. Genetic regions and positions on Chromosome 10 were determined using the UCSC genome browser (GRCh37/hg19 assembly) and the 850K array probe annotation file provided by Illumina. (b) Lollipop schematic illustrating the distribution of CpG methylation sites in each representative clonal population (red circle=methylated site; gray circle=unmethylated site). Genomic DNA from LN18 cells containing either dCas9-DNMT3A/non-specific sgRNA or dCas9-DNMT3A/sgRNAs underwent sodium bisulfite treatment, followed by nested PCR amplification. Amplicons of Region 1 and Region 2 were obtained separately and used to generate individual clones for each region via TA cloning. Abbreviations for individual clone nomenclature (e.g., “4-NSC1” vs. “13-NSC1”): “4”=Region containing sgRNA4 target sequence; “13”=Region containing sgRNA 1, 2, 3 target sequences. “NSC” vs. “SgR” indicates whether clone source was transfected with non-specific sgRNA or sgRNA1, 2, 3, 4. Numbers following NSC or SgR designation indicate individual clone numbers. Each row of the schematic (per category, NSC or SgR) represents a single clone. Regional CpG sites as per Malley et al (2011): DMR1=CpG 25-50; DMR2=CpG 73-90; MSP=CpG 76-87 (MSP-F=CpG 76-80; MSP-R=CpG 84-87). Core/minimal promoter=CpG 50-62; Enhancer=CpG 82-87. […] Blue arrows indicate CpG sites that are methylated (converted from T-G to C-G). Region 1 includes the sequence targeted by sgRNA4 (s4). Region 2 includes the sequence targeted by sgRNA 1, 2 and 3 (s1, s2, s3).
# Bisulfite Sequencing. DNA was isolated using DNEasy Blood & Tissue Kit (Qiagen, Catalog #69506). Bisulfite conversion was accomplished using EZ DNA Methylation-Gold (Zymo Research, Catalog #D5005) per kit protocol. Nested PCR primers were used as follows: […]
# Region 1: First PCR primer pair F4/R4; second PCR pair F5/R4.
# Region 2: First PCR primer pair F1/R1; second PCR pair F1/SeqR.
# Sequencing reactions were performed using BigDye Terminator v3.1 Cycle Sequencing Kit (ThermoFisher, Cat #433750) with sequencing primers (R4 primer=Region 1; SeqR primer=Region 2); samples were purified by PCR Clean-Up Performa Spin Columns (EdgeBio Cat #13266) and submitted for Sanger sequencing analysis (Laragen, Culver City, CA).
# TA Cloning. Sodium bisulfite-treated genomic DNA underwent nested PCR as above, for either Region 1 or 2. […]
# MGMT = biological target: T1, MGMT (Homo sapiens, UniProt P16455); conditions: Phase II clinical trial, cited from earlier work
# T1 construct: host or cells: patients (clinical trial)
# T1 sequence (P16455 1-207): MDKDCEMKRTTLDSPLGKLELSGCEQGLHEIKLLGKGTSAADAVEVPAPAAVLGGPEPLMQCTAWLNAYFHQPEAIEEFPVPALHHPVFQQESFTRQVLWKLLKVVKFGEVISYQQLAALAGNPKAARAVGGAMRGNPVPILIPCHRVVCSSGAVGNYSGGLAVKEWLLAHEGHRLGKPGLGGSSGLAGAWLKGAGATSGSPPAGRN
compound,measurement,setting,value
5′-GTATTACTGATATTGGTGGG-3′ (chemistry not given here) [NSC],TMZ sensitivity (MTT survival),LN18 human glioma cells [1],Essentially no TMZ sensitivity
same,TMZ sensitivity (clonogenic survival),LN18 human glioma cells [2],Essentially no TMZ sensitivity
"5′-AGGCGCCCTCACTTCGCCGT-3′ (guide (5'-AGGCGCCCTCACTTCGCCGT-3'; as printed in the source, key not given here) [sgRNA2]",location of methylated CpG sites,MGMT CpG island,"CpG 77, 81-89"
Nc1nc(OCc2ccccc2)c2nc[nH]c2n1 [O-6-benzylguanine],clinical benefit,MGMT,limited benefits
same,toxicity,MGMT; including off-target bone marrow suppression,severe dose-limiting toxicities
"5′-AGGGCATGCGCCGACCCGGT-3′ (guide (5'-AGGGCATGCGCCGACCCGGT-3'; as printed in the source, key not given here) [sgRNA4]",location of methylated CpG sites,MGMT CpG island,CpG 22-38
same,methylation radius upstream from sgRNA,"MGMT CpG island; Region 1, to upstream 5′ limit of amplicon (CpG 22)",20 bp
"5′-GGTGCGCACCGTTTGCGACT-3′ (guide (5'-GGTGCGCACCGTTTGCGACT-3'; as printed in the source, key not given here) [sgRNA1]",location of methylated CpG sites,MGMT CpG island,"CpG 77, 81-89"
"5′-CTTTGCGTCCCGACGCCCGC-3′ (guide (5'-CTTTGCGTCCCGACGCCCGC-3'; as printed in the source, key not given here) [sgRNA3]",location of methylated CpG sites,MGMT CpG island,"CpG 77, 81-89"
